Reference: PubChem BioAssay (NCI)
Values joined by “and” are separate entries in the source; they are usually repeats but may differ in a detail not shown here. Equal values may be shown once.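 1) Cells in 96-well plates. 2) Compound, 48 h, 5 concentrations. 3) Linear interpolation between surrounding doses. 4) Unreached endpoint = highest concentration. The concentration for 50% growth inhibition is given as GI50. TGI is the concentration that stops growth completely.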

Key:
Assay in all cases: NCI anticancer screen, dose series, 48 h
CAKI-1 renal = tested on: CAKI-1 renal
CCRF-CEM leukemia = tested on: CCRF-CEM leukemia
DLD-1 colon = tested on: DLD-1 colon
HOP-62 NSCLC = tested on: HOP-62 NSCLC
KM20L2 colon = tested on: KM20L2 colon
M19-MEL melanoma = tested on: M19-MEL melanoma
OVCAR-8 ovarian = tested on: OVCAR-8 ovarian
RPMI-8226 leukemia = tested on: RPMI-8226 leukemia
SK-MEL-28 melanoma = tested on: SK-MEL-28 melanoma
UACC-257 melanoma = tested on: UACC-257 melanoma
XF 498 CNS = tested on: XF 498 CNS
HS 578T breast = tested on: HS 578T breast

Compound | TGI (CAKI-1 renal) | TGI (CCRF-CEM leukemia) | TGI (DLD-1 colon) [µM] | TGI (HOP-62 NSCLC) | TGI (KM20L2 colon) [µM] | TGI (M19-MEL melanoma) [µM] | TGI (OVCAR-8 ovarian) | TGI (RPMI-8226 leukemia) | TGI (SK-MEL-28 melanoma) | TGI (UACC-257 melanoma) | TGI (XF 498 CNS) [µM] | GI50 (CAKI-1 renal) | GI50 (CCRF-CEM leukemia) | GI50 (HOP-62 NSCLC) | GI50 (HS 578T breast) | TGI (HS 578T breast) [µM] | GI50 (OVCAR-8 ovarian) | GI50 (RPMI-8226 leukemia) | GI50 (SK-MEL-28 melanoma) | GI50 (UACC-257 melanoma)
O=C(/C=C/c1ccc(Cl)c(Cl)c1)c1cccc2ccccc12 | 20.4 µM | 7.18 µM | 11.4 | 31.4 µM | 17.7 | 24.6 | 4.74 µM | 8.53 µM | 33.5 µM | 29.5 µM | – | – | – | – | – | – | – | – | – | –
Cc1ccc(NC(=O)C(=O)C(C(=O)/C=C/c2ccccc2)C2OC(=O)c3ccccc32)c(C)c1 (stereo unspecified) | > 100 µM | > 100 µM | > 100 | > 100 µM | > 100 | > 100 | – | > 100 µM | > 100 µM | > 100 µM | > 100 | – | – | – | – | – | – | – | – | –
CC1=NN(c2ccccc2)C(=O)/C1=C\c1ccc([N+](=O)[O-])cc1 | 73.6 µM | 49.5 µM | > 100 | – | > 100 | – | > 100 µM | 57.2 µM | > 100 µM | > 100 µM | 44.6 | – | – | – | – | – | – | – | – | –
Cc1ccccc1-n1c(N)c(-c2nc3ccccc3[nH]2)sc1=S | 71.4 µM | > 100 µM | 64.6 | 46 µM | – | 50.5 | 84.2 µM | 62.2 µM | 39.3 µM | 36.6 µM | – | – | – | – | – | – | – | – | – | –
O=Cc1ccc2c(c1I)OCO2 | > 100 µM | > 100 µM | > 100 | > 100 µM | > 100 | > 100 | > 100 µM | > 100 µM | – | > 100 µM | – | – | – | – | – | – | – | – | – | –
CC(=O)/C(=C\c1ccccc1O)C(=O)Nc1ccccc1C | 63.8 µM | 84.9 µM | 79.1 | 44.7 µM | – | > 100 | > 100 µM | 71.4 µM | 53.8 µM | > 100 µM | 28.1 | – | – | – | – | – | – | – | – | –
N#CNc1nc(N)c(-c2ccc(Cl)cc2)c(C(=O)Nc2nccs2)n1 | > 100 µM | – | > 100 | > 100 µM | > 100 | > 100 | > 100 µM | > 100 µM | > 100 µM | > 100 µM | > 100 | – | – | – | – | – | – | – | – | –
CCOc1ccc(NC(=O)CCc2nnc(SC)o2)cc1 | > 100 µM | > 100 µM | > 100 | > 100 µM | > 100 | > 100 | > 100 µM | – | > 100 µM | > 100 µM | – | – | – | – | – | – | – | – | – | –
ClC1=C(Cl)C(Cl)(Cl)c2c3c(c4c(c21)C(Cl)(Cl)C(Cl)=C4Cl)C(Cl)(Cl)C(Cl)=C3Cl | – | > 100 µM | – | > 100 µM | > 100 | – | > 100 µM | > 100 µM | > 100 µM | > 100 µM | > 100 | – | – | – | – | – | – | – | – | –
CN1CCN(CCCCCN=c2cc3c(=O)n(CCCCCN4CCN(C)CC4)c(=O)c4c(NCCCCCN5CCN(C)CC5)cc5c(O)n(CCCCCN6CCN(C)CC6)c(=O)c2c5c4-3)CC1 | > 100 µM | 26 µM | – | 12.2 µM | – | – | 17.2 µM | 11.3 µM | 8.14 µM | 6.56 µM | – | > 100000 nM | 2690 nM | 2450 nM | 2640 nM | 6.86 | 3920 nM | 3020 nM | 2960 nM | 2600 nM
COc1ccc(OC(=O)CC2Cc3cc(OC)c(OC)c(OC)c3-c3ccc(SC)c(=O)cc32)cc1 (stereo unspecified) | – | 10.1 µM | > 34.6 | > 39 µM | – | > 100 | > 37.1 µM | 14.4 µM | 98.9 µM | > 54.2 µM | 7.8 | – | – | – | – | – | – | – | – | –
COc1ccc(/C=C(/C)[N+](=O)[O-])cc1OC | 4.04 µM and 1.46 µM | 5.31 µM and 5.72 µM | – | 4.36 µM and 14.8 µM | – | – | 8 µM and 10 µM | 3.43 µM and 5.18 µM | 3.66 µM and 3.6 µM | 2.98 µM and 1.92 µM | – | 1880 nM and 338 nM | 1960 nM and 786 nM | 2030 nM and 4170 nM | 6200 nM and 5550 nM | > 100 | 2620 nM and 3220 nM | 971 nM and 1600 nM | 1760 nM and 1870 nM | 1560 nM and 600 nM
COc1cc2cc(Oc3ccc(NC(=O)c4ccc(Cl)c(Cl)c4)cc3)c(C)nc2cc1OC | > 100 µM | > 100 µM | – | > 100 µM | – | – | > 100 µM | > 100 µM | > 100 µM | > 100 µM | – | 5960 nM | 4440 nM | > 100000 nM | 7240 nM | > 100 | > 100000 nM | 3700 nM | > 100000 nM | > 100000 nM
COc1cc(C(=O)Nc2cc(O)c(CC=C(C)C)c(O)c2)cc2c1O[C@]1(C)CC[C@@H](O)C(C)(C)[C@H]1C2 | 63.1 µM | > 100 µM | – | 8.81 µM | – | – | 44.2 µM | 0.816 µM | 22.8 µM | 13.1 µM | – | 491 nM | 96.2 nM | 460 nM | 47.1 nM | 14 | 623 nM | 95.9 nM | 2030 nM | 98.9 nM
O=Nc1c(-c2c(O)[nH]c3ncccc23)[nH]c2ccccc12 | > 100 µM | > 100 µM | – | > 100 µM | – | – | > 100 µM | > 79 µM | > 100 µM | > 100 µM | – | 1900 nM | 5070 nM | > 100000 nM | 2710 nM | > 100 | > 100000 nM | – | > 57300 nM | > 100000 nM
COc1ccc2c(-c3ccnc(Nc4cccc(OC(F)(F)F)c4)n3)cnn2n1 | > 9.77 µM | > 25 µM | – | > 15.9 µM | – | – | 10.5 µM | > 21 µM | > 25 µM | > 25 µM | – | 877 nM | 1090 nM | 1110 nM | 835 nM | > 9.95 | 1840 nM | 1770 nM | 3470 nM | 1550 nM
C1CSCCSCCCSCCSCCCSCCSCCCSCCSC1 | > 100 µM | > 100 µM | – | > 100 µM | – | – | > 100 µM | > 100 µM | > 100 µM | > 100 µM | – | – | – | – | – | > 100 | – | – | – | –
CC1=C(C(=O)Nc2ccc(Cl)c(Cl)c2)C(c2ccc([N+](=O)[O-])cc2)C(C(=O)Nc2ccc(Cl)c(Cl)c2)=C(C)N1 | 16 µM | – | > 41.7 | 8.7 µM | 4.3 | 3.97 | 8.58 µM | 8.63 µM | 9.93 µM | 7.84 µM | 4.38 | – | – | – | – | – | – | – | – | –
COc1cc(C2(C)SCCCS2)cc(OC)c1OC | > 100 µM | > 100 µM | > 100 | > 100 µM | > 100 | > 100 | > 100 µM | > 100 µM | > 100 µM | > 100 µM | – | – | – | – | – | – | – | – | – | –
